Source: patent US20030166202A1, “P450 Monooxygenases of the cyp79 family” (priority 2000, published 2003)

What was measured:
CYP79B2 = target: T1, CYP79B2 (Arabidopsis thaliana, UniProt O81346); experiment: CYP79B2 activity in E. coli spheroplasts reconstituted with NADPH:cytochrome P450 reductase; details: radiolabelled amino acid, TLC
T1 sequence (O81346 1-541): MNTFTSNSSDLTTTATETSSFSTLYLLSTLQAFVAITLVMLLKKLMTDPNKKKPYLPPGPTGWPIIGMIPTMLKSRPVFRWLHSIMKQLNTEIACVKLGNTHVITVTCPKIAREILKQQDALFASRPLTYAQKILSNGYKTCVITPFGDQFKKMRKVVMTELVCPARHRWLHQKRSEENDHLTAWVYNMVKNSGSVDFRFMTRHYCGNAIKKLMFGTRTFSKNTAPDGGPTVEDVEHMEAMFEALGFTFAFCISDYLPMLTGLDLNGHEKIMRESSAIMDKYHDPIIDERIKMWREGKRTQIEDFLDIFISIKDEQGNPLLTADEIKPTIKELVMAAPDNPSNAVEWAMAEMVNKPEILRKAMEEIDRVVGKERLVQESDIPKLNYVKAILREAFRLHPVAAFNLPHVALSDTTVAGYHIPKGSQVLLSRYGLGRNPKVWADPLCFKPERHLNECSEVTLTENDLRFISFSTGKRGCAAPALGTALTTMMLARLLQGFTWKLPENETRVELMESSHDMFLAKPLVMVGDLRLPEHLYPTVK
Description: The activity of CYP79B2 is measured by reconstituting spheroplasts from E. coli expressing CYP79B2 with purified NADPH:cytochrome P450 reductase from Sorghum bicolor (L.) Moench. […] The reaction is incubated at 34° C. for 30 minutes, extracted two times with ethyl acetate and the ethyl acetate phase is analyzed by TLC using toluen:ethyl acetate 5:1 as eluent. Radiolabelled bands are visualized on a Storm 840 phosphorimager (Molecular Dynamics) and quantified with ImageQuant analysis software (Molecular Dynamics). Substrate specificity is investigated by substituting the ^14C-labelled tryptophan with ^14C-labelled tyrosine or phenylalanine. GC-MS is employed to verify the structure of the compound produced from tryptophan by recombinant CYP79B2. A 450 μl reaction mixture as described above containing 2 mM unlabelled tryptophan is incubated at 34° C. for 2 hours. The reaction mixture is extracted twice with 300 μl CHCl3 and lyophilized until dryness. GC-MS is performed with an HP5890 Series II gas chromatograph coupled to a Jeol JMS-AX505W mass spectrometer. Splitless injection on an SGE column (BPX5, 25 mm×0.25 mm, 0.25 μm film thickness) and a head pressure of 100 kPa are used.
Single colonies are grown overnight at 37° C. in LB medium containing 100 μg/ml ampicillin. 1 ml of the overnight culture is used to inoculate 75 ml TB medium containing 100 μg/ml ampicillin, 75 μg/ml δ-aminolevulinic acid, 1 mM thiamine and 1 mM IPTG. The TB cultures are grown for 44 hours at 125 rpm and 28° C.

CYP79E2 = experiment: Substrate specificity / reconstitution of CYP79E2; format: biochemical, Triglochin maritima
Description: (§1) Investigations into the substrate specificity of CYP79D1, CYP79D2, CYP79E1, CYP79E2, CYP79A2, CYP79B2, CYP79B5 and CYP79F1 are carried out in E. coli spheroplasts reconstituted with sorghum NADPH-cytochrome P450 oxidoreductase in the presence of high amounts of lipids. L-α-dioleyl phosphatidyl choline and L-α-dilauroyl phosphatidyl choline are preferred lipids for the reconstitution. […] Neither L-methionine, L-tryptophane nor L-tyrosine are metabolized by CYP79A2. Neither phenylalanine nor tyrosine are metabolized by CYP79B2. Neither L-tryptophane, L-phenylalanine nor L-tyrosine are metabolized by CYP79F1. D-Amino acids are not converted into oximes by CYP79D1, CYP79D2, CYP79E1 and CYP79E2. Depending on the nature of the substrate, substrate specificity may also be determined using intact P. pastoris cells or intact E. coli cells.
(§2) Expression levels of the different constructs are determined by CO difference spectroscopy and quantified using an extinction coefficient ε450-490 of 91 mM^−1cm^−1 (Omura et al, J. Biol. Chem. 239: 2370-2378, 1964). Spectra are made from 100 μl or 500 μl whole E. coli cells or using the rich phases from Triton X-114 phase partitioning solubilized in 50 mM KH2PO4/K2HPO4 pH 7.5, 2 mM EDTA, 20% glycerol, 0.2% Triton X-100 (total volume: 1 ml). […] In vitro activities are measured in reconstitution experiments using the rich phase from phase partitioning. […]

CYP79E1 = target: T2, CYP79E1 (Manihot esculenta, UniProt Q9M7B8); experiment: Substrate specificity / reconstitution of CYP79E1; format: biochemical, Triglochin maritima
T2 construct: A full length construct (CYP79E1na) encoding native CYP79E1 with silent mutations introduced at codons 3 and 5; made in house; host or cells: E. coli JM109 (vector pSP19g10L)
Description: as §1, §2

CYP79D2 = target: T3, CYP79D2 (Manihot esculenta, UniProt Q9M7B7); format: biochemical, cassava
T3 construct: made in house
Description: Investigations into the substrate specificity of CYP79D1, CYP79D2, CYP79E1, CYP79E2, CYP79A2, CYP79B2, CYP79B5 and CYP79F1 are carried out in E. coli spheroplasts reconstituted with sorghum NADPH-cytochrome P450 oxidoreductase in the presence of high amounts of lipids. L-α-dioleyl phosphatidyl choline and L-α-dilauroyl phosphatidyl choline are preferred lipids for the reconstitution. […] Depending on the nature of the substrate, substrate specificity may also be determined using intact P. pastoris cells or intact E. coli cells.
The ability of a P450 monooxygenase to convert an aliphatic or aromatic amino acid or chain-elongated methionine homologue to the corresponding oxime can be tested in an assay (see also example 5) comprising
a) incubating a reaction mixture comprising the P450 monooxygenase of the present invention or spheroplasts of E.coli cells expressing said enzyme, the parent amino acid, NADPH, oxygen, NADPH-cytochrome P450 oxidoreductase and lipid at ambient temperature for a certain period of time which is between 2 min and 2 to 6 hours;
b) terminating the reaction for example by the addition of a denaturing compounds such as ethyl acetate; and
c) chemically identifying and quantifying the aldoxime produced.

[1] = with NADPH, NADPH-cytochrome P450 oxidoreductase, CYP71E1

T2 sequence (Q9M7B8 whole entry): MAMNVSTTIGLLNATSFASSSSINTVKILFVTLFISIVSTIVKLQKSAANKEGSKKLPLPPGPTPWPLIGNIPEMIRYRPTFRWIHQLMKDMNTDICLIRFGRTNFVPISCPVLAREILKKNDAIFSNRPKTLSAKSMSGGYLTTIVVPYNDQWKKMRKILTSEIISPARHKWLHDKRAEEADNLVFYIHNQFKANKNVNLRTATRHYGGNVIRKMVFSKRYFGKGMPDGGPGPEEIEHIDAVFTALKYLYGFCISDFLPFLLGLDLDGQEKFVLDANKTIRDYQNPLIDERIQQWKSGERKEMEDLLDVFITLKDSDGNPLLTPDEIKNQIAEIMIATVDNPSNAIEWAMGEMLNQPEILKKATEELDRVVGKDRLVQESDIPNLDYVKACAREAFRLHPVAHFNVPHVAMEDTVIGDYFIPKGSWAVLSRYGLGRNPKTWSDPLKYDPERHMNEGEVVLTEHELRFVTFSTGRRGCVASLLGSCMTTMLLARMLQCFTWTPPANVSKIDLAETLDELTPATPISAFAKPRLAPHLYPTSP
T3 sequence (Q9M7B7 whole entry): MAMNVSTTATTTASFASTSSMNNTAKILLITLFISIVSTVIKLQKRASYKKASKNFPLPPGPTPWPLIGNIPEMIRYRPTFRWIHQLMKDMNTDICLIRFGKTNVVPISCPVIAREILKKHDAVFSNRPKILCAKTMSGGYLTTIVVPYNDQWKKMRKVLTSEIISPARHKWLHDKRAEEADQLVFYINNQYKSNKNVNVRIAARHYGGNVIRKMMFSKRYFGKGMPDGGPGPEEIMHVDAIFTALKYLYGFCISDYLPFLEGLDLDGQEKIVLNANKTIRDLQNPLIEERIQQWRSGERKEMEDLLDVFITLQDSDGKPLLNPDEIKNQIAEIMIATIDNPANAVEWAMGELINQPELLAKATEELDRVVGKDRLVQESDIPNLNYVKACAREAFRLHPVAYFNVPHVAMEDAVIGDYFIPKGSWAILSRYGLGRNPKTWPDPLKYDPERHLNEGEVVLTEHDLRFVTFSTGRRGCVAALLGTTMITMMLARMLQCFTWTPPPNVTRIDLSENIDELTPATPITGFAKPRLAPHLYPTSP

N[C@@H](Cc1ccc(O)cc1)C(=O)O [L-tyrosine]
oxime production by CYP79B2 (CYP79B2): No oxime producing activity is detected
conversion to the corresponding oxime by CYP79E2 (CYP79E2): found to convert
product accumulation in reconstitution of CYP79E2 with CYP71E1 (CYP79E2; [1]): considerable amounts of p-hydroxyphenylacetonitrile and p-hydroxybenzaidehyde accumulate
conversion to the corresponding oxime by CYP79E1 (CYP79E1): found to convert
product accumulation in reconstitution of CYP79E1 with CYP71E1 (CYP79E1; [1]): considerable amounts of p-hydroxyphenylacetonitrile and p-hydroxybenzaidehyde accumulate
conversion to the corresponding oxime by CYP79D2 (CYP79D2): Neither L-Leucine, L-phenylalanine nor L-tyrosine are metabolized
